Data from patent publication US9650614B2, “Anaplastic lymphoma kinase (ALK) as oncoantigen for lymphoma vaccination” (priority 2007, dated 2017).
Entries after “also recorded” stand apart in the source; their conditions may differ.

Assays:
[1] = system: NPM-ALK expressing lymphoma cells; test: s.c. challenge with NPM-ALK lymphoma cells after DNA vaccination; type: in vivo, BALB/c mice; details: vaccinated twice at a week interval; s.c. challenge one week after second vaccination
Method: FIG. 1. ALK vaccination prevents the growth of NPM-ALK positive lymphoma cells. (a,b) BALB/c mice were vaccinated on day 0 and 7 in both the tibial muscles with 40 μg of pDEST plasmid or with pDEST-ALK (ALK) plasmid coding for the full ALK tyrosine kinase intracytoplasmic domain (a) or with pDEST-ALKt (ALKt) coding for a truncated portion of ALK lacking the part of the tyrosine kinase domain (b). An additional group of mice was vaccinated with the pDEST-ALK or pDEST-ALKt plasmids combined with the same amount of a pcDNA3 plasmid coding for GM-CSF. […]
Mice were challenged subcutaneously in the right flank with 0.2 ml PBS of a single suspension containing 10^5 to 10^6 ALK-OVA and VAC lymphoid cells, as indicated in each experiment. The cages were coded, and the incidence and the growth of tumors were evaluated at the indicated times in a blind fashion. Neoplastic masses were measured with calipers in the two perpendicular diameters.
For DNA electroporation, 50 μg of pDEST empty vector or pDEST-ALK (ALK) vector in 20 μl of 0.9% NaCl with 6 mg/ml polyglutamate were injected on days 0 and 7 into both the tibial muscle of anesthetized BALB/c mice. […] Protection was evaluated as the percentage of lymphoma-free mice 21 days after challenge.

NPM-ALK lymphoma cells [2] = test: in vitro survival of lymphoma cells with doxorubicin (TMRM staining, flow cytometry); type: cell-based, murine; details: 24 or 48 hours, increasing concentrations
Method: FIG. 6. NPM-ALK lymphoma cells are sensitive to doxorubicin. NPM-ALK lymphoma cells were incubated in vitro for 24 or 48 hours with increasing concentrations of doxorubicin. Percentages of alive cells were calculated by TMRM staining and flow cytometry analyses.
To mimic more strictly these clinical settings, the efficiency of the vaccination strategy disclosed herein in association with chemotherapy, which remains the standard therapeutic strategy for human Anaplastic Large Cell Lymphomas (ALCL), was tested.

NPM-ALK lymphoma cells [3] = test: i.v. lymphoma treated with single dose doxorubicin followed by DNA vaccination; type: in vivo, BALB/c mice
Text: FIG. 2. Efficacy of ALK vaccination in preventing disseminated lymphoma growth and in lymphoma therapy (a,b) Disseminated growth of NPM-ALK lymphoma cells injected in the tail vein in mock or ALK plasmid vaccinated BALB/c mice. (a) All mock vaccinated mice challenged i.v. 7 days after the second vaccination with 1×10^6 NPM-ALK lymphoma died of lymphoma outgrowth within 50 days after challenge while 70% of ALK vaccinated mice remained alive and well for all the observation period of 180 days. […] (c) Increasing amounts of NPM-ALK lymphoma cells were injected s.c. in BALB/c mice on day 0. Mice were then vaccinated as described above on days 1 and 8. Tumor growth was followed over time. Data are from one of two independent experiments with at least 7 mice for each group. * P<0.01. (d) BALB/c mice were i.v. injected with 1×10^6 NPM-ALK lymphoma cells on day 0. On day 7 mice received i.v. 10 mg/kg of doxorubicin (dashed arrow) followed on days 14, 21 and 28 by DNA vaccination with empty (mock) or ALK-expressing plasmids (full arrows). Mice were then followed up to 90 days. […] Tumor size was measured over time. […]
A single dose chemotherapy protocols was employed using doxorubicin (10 mg/kg) 7 day prior the i.v. injection of a challenging dose (1×10^6) of NPM-ALK positive lymphoma cells. […] Tumor growth and overall survival were determined, overtime.

Molecule	protection from localized lymphoma growth [1]	sensitivity of lymphoma cells (apoptosis / alive cells) (NPM-ALK lymphoma cells [2])	cure rate (NPM-ALK lymphoma cells [3]; chemotherapy alone (single dose doxorubicin one week after 1×10^6 cells i.v.)) [%]	survival (NPM-ALK lymphoma cells [3]; chemotherapy alone versus untreated mice)
pDEST-ALK^K210R: pDEST plasmid encoding cytoplasmic portion of kinase dead mutant K210R of ALK (SEQ ID No.:3)	total protection			
COc1cccc2c1C(=O)c1c(O)c3c(c(O)c1C2=O)C[C@@](O)(C(=O)CO)C[C@@H]3O[C@H]1C[C@H](N)[C@H](O)[C@H](C)O1 [doxorubicin]		sensitive; also recorded: rapid apoptosis with low doses	60	prolonged their survival
pDEST-ALKt: pDEST plasmid with truncated form of ALK lacking part of the tyrosine kinase domain (SEQ ID No.: 2) (nucleic acid, portion of cytoplasmic domain of ALK - human) DNA: TGCTTTGCTGGCAAGACCTCCTCCATCAGTGACCTGAAGGAGGTGCCGCGGAAAAACATCACCCTCATTCGGGGTCTGGGCCATGGCGCCTTTGGGGAGGTGTATGAAGGCCAGGTGTCCGGAATGCCCAACGACCCAAGCCCCCTGCAAGTGGCTGTGAAGACGCTGCCTGAAGTGTGCTCTGAACAGGACGAACTGGATTTCCTCATGGAAGCCCTGATCATCAGCAAATTCAACCACCAGAACATTGTTCGCTGCATTGGGGTGAGCCTGCAATCCCTGCCCCGGTTCATCCTGCTGGAGCTCATGGCGGGGGGAGACCTCAAGTCCTTCCTCCGAGAGACCCGCCCTCGCCCGAGCCAGCCCTCCTCCCTGGCCATGCTGGACCTTCTGCACGTGGCTCGGGACATTGCCTGTGGCTGTCAGTATTTGGAGGAAAACCACTTCATCCACCGAGACATTGCTGCCAGAAACTGCCTCTTGACCTGTCCAGGCCCTGGAAGAGTGGCCAAGATTGGAGACTTCGGGATGGCCCGAGACATCTACAGGGCGAGCTACTATAGAAAGGGAGGCTGTGCCATGCTGCCAGTTAAGTGGATGCCCCCAGAGGCCTTCATGGAAGGAATATTCACTTCTAAAACAGACACATGGTCCTTTGGAGTGCTGCTATGGGAAATCTTTTCTCTTGGATATATGCCATACCCCAGCAAAAGCAACCAGGAAGTTCTGGAGTTTGTCACCAGTGGAGGCCGGATGGACCCACCCAAGAACTGCCCTGGGCCTGTATACCGGATAATGACTCAGTGCTGGCAACATCAGCCTGAAGACAGGCCCAACTTTGCCATCATTTTGGAGAGGATTGAATACTGCACCCAGGACCCGGATGTAATCAACACCGCTTTG	total protection			
